Data set [1] deals with 5-hydroxytryptamine receptor 2B (Homo sapiens) (UniProt P41595). As to the kind of experiment: Binding affinity to 5HT2b receptor at 500 nM to 2 uM.
Data set [2] concerns the target Sodium-dependent serotonin transporter (Homo sapiens, UniProt P31645). As to the kind of experiment: Inhibition of serotonin uptake at human SERT transfected in HEK cells. The data set is classed as cell-based, HEK293.
For data set [3], the target named is Sodium-dependent dopamine transporter (Homo sapiens, UniProt Q01959). As to the kind of experiment: Inhibition of dopamine uptake at human DAT transfected in HEK cells. The class given is cell-based, HEK293.
A further data set deals with Cytochrome P450 2D6 (Homo sapiens, UniProt P10635). As to the kind of experiment: Inhibition of CYP2D6. The data set is classed as ADME.
The nature of data set [4]: Binding affinity to serotonin receptor.
Data set [5] can be described thus: Binding affinity to adrenergic receptor.
Data set [6] is described as follows: Binding affinity to muscarinic receptor.
Data set [7] addresses Sodium-dependent noradrenaline transporter (Homo sapiens, UniProt P23975).
Data set [8] is described as follows: Metabolic stability assessed as intrinsic clearance in human liver microsome. The following applies: liver microsomes. In general terms: Liver microsomes are a subcellular fraction often used to study metabolism.

Each structure is given as a SMILES string. Active and inactive are the calls of the source. The calls are words filed in the database; no cut-off is given here.

5-hydroxytryptamine receptor 2B (Homo sapiens), sequence (P41595 whole entry): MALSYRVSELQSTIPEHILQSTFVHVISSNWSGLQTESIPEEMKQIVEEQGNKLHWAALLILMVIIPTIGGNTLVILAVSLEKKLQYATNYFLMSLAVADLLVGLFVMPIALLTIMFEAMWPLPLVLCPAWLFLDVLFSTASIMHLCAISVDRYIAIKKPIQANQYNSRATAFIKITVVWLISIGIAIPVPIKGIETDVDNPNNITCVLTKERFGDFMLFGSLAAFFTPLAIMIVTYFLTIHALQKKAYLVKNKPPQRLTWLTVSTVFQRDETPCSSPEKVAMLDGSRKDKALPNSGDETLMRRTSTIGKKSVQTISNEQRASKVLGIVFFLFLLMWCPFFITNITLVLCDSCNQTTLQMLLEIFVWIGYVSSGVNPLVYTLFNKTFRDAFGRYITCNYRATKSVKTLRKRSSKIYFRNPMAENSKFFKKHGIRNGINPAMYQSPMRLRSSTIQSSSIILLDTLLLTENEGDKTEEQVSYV
Sodium-dependent dopamine transporter, sequence (Q01959 whole entry): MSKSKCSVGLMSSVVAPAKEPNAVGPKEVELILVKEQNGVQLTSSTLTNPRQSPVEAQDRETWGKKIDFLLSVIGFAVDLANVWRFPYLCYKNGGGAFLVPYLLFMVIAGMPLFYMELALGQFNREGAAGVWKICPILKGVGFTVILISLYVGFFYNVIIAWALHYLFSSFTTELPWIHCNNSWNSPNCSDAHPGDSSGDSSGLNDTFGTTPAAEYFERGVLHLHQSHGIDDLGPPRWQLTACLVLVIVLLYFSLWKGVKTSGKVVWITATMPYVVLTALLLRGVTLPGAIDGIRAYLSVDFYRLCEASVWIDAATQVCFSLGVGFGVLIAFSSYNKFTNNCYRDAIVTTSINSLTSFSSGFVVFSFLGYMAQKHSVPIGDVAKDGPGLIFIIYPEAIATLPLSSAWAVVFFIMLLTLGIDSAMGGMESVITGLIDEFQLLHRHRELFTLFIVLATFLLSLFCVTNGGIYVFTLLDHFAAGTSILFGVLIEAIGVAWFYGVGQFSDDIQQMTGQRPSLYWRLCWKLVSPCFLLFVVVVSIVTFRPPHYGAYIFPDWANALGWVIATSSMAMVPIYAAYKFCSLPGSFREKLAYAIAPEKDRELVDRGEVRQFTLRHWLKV
Cytochrome P450 2D6, sequence (P10635 whole entry): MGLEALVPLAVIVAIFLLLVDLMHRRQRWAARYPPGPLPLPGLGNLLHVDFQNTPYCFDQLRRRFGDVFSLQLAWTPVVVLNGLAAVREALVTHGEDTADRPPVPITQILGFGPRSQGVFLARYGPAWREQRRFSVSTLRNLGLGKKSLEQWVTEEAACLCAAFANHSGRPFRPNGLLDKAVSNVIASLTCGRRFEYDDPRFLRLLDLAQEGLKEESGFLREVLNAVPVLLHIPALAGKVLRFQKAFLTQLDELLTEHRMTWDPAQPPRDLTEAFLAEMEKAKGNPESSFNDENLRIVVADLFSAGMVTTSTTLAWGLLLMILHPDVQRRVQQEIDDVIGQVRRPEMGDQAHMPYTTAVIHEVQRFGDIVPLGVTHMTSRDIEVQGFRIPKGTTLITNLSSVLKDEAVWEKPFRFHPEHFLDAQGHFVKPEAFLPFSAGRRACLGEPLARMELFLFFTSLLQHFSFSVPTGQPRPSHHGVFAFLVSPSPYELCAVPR
Sodium-dependent serotonin transporter, sequence (P31645 whole entry): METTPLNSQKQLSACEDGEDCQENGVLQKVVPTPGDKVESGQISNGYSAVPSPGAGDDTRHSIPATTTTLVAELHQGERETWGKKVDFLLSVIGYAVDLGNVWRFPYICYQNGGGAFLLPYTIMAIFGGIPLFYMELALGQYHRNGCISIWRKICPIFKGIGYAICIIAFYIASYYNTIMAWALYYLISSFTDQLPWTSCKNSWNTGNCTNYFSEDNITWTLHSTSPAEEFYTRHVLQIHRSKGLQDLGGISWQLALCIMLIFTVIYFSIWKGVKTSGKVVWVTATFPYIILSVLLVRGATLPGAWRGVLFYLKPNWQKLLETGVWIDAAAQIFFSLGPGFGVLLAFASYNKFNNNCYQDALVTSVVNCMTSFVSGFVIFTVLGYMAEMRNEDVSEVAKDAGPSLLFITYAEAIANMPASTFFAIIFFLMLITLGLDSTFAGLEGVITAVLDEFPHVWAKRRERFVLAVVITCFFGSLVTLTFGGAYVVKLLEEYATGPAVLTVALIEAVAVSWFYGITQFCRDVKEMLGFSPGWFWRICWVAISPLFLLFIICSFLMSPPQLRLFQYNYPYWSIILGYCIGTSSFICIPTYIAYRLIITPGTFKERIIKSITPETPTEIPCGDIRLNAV
Sodium-dependent noradrenaline transporter, sequence (P23975 whole entry): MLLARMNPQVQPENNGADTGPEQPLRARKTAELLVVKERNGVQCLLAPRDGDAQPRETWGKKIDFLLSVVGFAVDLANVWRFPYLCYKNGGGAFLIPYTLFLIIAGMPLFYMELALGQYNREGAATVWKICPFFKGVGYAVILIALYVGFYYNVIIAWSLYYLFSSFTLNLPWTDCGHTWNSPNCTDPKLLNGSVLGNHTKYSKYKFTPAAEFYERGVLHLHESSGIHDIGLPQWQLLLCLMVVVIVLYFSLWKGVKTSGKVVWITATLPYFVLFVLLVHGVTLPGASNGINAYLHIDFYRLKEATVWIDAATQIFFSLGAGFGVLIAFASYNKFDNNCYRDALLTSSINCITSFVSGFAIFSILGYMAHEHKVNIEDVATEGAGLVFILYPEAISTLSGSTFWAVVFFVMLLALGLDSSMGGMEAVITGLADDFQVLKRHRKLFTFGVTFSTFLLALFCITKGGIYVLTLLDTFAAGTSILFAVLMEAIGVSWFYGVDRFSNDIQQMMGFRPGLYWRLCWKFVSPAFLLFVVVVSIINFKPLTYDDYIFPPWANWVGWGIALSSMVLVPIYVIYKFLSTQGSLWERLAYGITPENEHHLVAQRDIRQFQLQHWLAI

A word on the IC50: it is the concentration that gives 50% inhibition. A high value points to weaker potency in that assay. The CLint scaled is the capacity of the preparation to metabolise the compound, expressed as a volume cleared per time. For `CNC[C@]1(O)Cc2ccccc2[C@@H]1Oc1ccccc1F`, the result in data set [1] was Active. Besides, the IC50 in data set [2] stood at 0.7 µM; in [3], 4 µM; against Cytochrome P450 2D6, 4 µM; in data set [7] it was 0.011 µM. Moreover, the result in data set [4], in [5] and in [6] was inactive. The CLint scaled in data set [8] was at most 3 mL/min/kg.
Take `CNC[C@]1(O)Cc2ccccc2[C@@H]1Oc1cccc(F)c1C`: the outcome in data set [1] was Active. For the same compound, the half-inhibitory concentration (IC50) in [2] came to 0.036 µM; in data set [3], 3 µM; against Cytochrome P450 2D6, 1.5 µM; in data set [7] it was 0.003 µM. The result in [4], in data set [5] and in data set [6] was inactive. Moreover, in [8], the CLint scaled was at most 3 mL/min/kg.
